# How the values were obtained:
# platelet CD62 [1] = assay: Detection of ADP as a GPIIb/IIIa DDPAS by DDPASFCA; type: cell-based, human; details: for + compound Med F12: + Compound A 1 μM; for no compound Med F12: no Compound A; for Delta Med F12: with minus without Compound A 1 μM
# Description: Adenosine diphosphate (ADP) was evaluated as a possible DDPAS as follows: Compound A (final concentration 1 μM) or vehicle was added to 25 μL of freshly prepared PRP in wells of a 96-well microtiter plate. Another set of wells received vehicle. After 10 minutes, 2.5 μL of from each well was transferred to microtiter wells containing only 20 μL of anti-CD62-PE. After incubation for 30 minutes, samples were analyzed by flow cytometry as in Example 1.
# platelet CD62 [2] = assay: DDPASFCA in alternative microtiter plates (Costar Serocluster #3897 versus #3898); type: cell-based, human; details: with minus without Compound A 200 nM
# Description: ADP and DPC38 were used as sources of DDPASs. 2 μL of citrated PRP (DPC3) was added to either Costar Serocluster® 96 well V-bottom microtiterplates (#3897) or #3898 microtiter plates (Costar Serocluster®) (rated as “hydrophilic” in nature by the manufacturer). Platelets were then treated with and without Compound A (200 nM) with the indicated concentrations of ADP. Similarly, DDPAS positive PRP (DPC38) was added to wells of both types of plates and treated with and without Compound A (200 nM). Reactions were incubated without shaking for 120 minutes. After this time, 20 μL of phycoerythrin conjugated anti-CD62 (anti-CD62-PE, Bectin Dickinson) was added. After 30 minutes the samples were diluted with 150 μL flow buffer and bound anti-CD62-PE measured as described in Example 1.
# Delta SC=Delta Fluorescence for Costar Serocluster microtiter plates
# Delta H=Delta Fluorescence for H3898 microtiter plates
# [3] = platelet donor DPC3, ADP 100 uM
smiles,measurement,setting,value
"Nc1ncnc2c1ncn2[C@@H]1O[C@H](COP(=O)(O)OP(=O)(O)O)[C@@H](O)[C@H]1O [ADP, Adenosine diphosphate]",+ compound Med F12,platelet CD62 [1]; ADP 0.4 μM final,20
same,no compound Med F12,platelet CD62 [1]; ADP 0.4 μM final,14
same,Delta Med F12,platelet CD62 [1]; ADP 0.4 μM final,5
same,+ compound Med F12,platelet CD62 [1]; ADP 2 μM final,89
same,no compound Med F12,platelet CD62 [1]; ADP 2 μM final,48
same,Delta Med F12,platelet CD62 [1]; ADP 2 μM final,40
same,+ compound Med F12,platelet CD62 [1]; ADP 10 μM final,208
same,no compound Med F12,"platelet CD62 [1]; ADP 10 μM final, PRP, 10 minutes",126
same,Delta Med F12,platelet CD62 [1]; ADP 10 μM final,82
same,Delta CS (Delta Fluorescence for Costar Serocluster microtiter plates),"platelet CD62 [2]; platelet donor DPC3, ADP 10 uM",89
same,Delta H (Delta Fluorescence for H3898 microtiter plates),"platelet CD62 [2]; platelet donor DPC3, ADP 10 uM",157
same,Delta CS (Delta Fluorescence for Costar Serocluster microtiter plates),platelet CD62 [2]; [3],82
same,Delta H (Delta Fluorescence for H3898 microtiter plates),platelet CD62 [2]; [3],168

# Source: patent publication US20020132276A1, “FACS method for detecton of GPIIb/IIIa inhibitor dependent activators in plasma samples” (priority 1999, published 2002)
